# From publication PMC5394417, “Investigating the molecular mechanism of positive and negative allosteric modulators in the calcium-sensing receptor dimer” (Scientific Reports, 2017)
# Biological target: T1, HA-S147A/S170A CaSR mutant (Rattus norvegicus, UniProt P48442, S147A/S170A)
# T1 construct: mGluR5 signal peptide (N); expressed in transfected cells; host or cells: HEK293T
# T1 sequence (P48442 20-1079 S147A/S170A): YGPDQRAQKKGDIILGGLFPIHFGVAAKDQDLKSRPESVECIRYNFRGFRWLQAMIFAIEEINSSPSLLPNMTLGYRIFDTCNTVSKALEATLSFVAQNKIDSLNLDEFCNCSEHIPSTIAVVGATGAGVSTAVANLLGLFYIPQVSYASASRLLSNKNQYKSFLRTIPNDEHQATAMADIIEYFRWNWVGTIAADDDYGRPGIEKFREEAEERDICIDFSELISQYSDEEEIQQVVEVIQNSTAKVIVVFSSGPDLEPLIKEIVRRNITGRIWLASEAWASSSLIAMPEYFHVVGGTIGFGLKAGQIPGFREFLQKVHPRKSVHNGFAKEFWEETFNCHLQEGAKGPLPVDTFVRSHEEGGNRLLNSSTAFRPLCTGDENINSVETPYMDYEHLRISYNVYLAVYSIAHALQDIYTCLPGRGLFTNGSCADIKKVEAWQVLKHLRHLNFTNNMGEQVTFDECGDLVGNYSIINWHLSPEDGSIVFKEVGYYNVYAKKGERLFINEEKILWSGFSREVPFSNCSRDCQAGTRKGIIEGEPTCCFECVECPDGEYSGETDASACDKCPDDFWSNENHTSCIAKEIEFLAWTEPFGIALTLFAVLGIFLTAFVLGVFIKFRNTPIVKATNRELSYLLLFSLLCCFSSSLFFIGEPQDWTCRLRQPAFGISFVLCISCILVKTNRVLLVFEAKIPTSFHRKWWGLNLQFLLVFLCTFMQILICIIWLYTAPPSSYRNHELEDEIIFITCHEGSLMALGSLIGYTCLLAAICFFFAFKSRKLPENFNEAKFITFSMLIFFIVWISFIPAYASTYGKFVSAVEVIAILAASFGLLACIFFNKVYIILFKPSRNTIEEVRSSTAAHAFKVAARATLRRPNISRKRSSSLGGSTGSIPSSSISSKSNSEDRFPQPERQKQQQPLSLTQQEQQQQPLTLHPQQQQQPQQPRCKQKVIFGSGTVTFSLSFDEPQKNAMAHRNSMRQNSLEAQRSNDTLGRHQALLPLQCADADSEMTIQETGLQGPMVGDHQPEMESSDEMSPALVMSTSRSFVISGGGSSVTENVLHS
# Assay: IP-One assay, HEK293T transiently transfected
# Type: cell-based
smiles,measurement,setting,value
[Ca+2] [Ca^2+],EC50,Ca^2+ alone,9.04 mM
same,Hill coefficient ± S.E.M.,Ca^2+ alone,3.00 ± 0.07
same,pEC50 ± S.E.M.,Ca^2+ alone,2.04 ± 0.02
same,Max ± S.E.M.,normalized to maximum response of WT CaSR,130 ± 28%
